# Laboratory results taken from ChEMBL document CHEMBL3526076, “Species-dependent and receptor-selective action of bilobalide on the function of constitutive androstane receptor and pregnane X receptor” (Drug Metab Dispos, 2012).
# Columns and labels:
# HepG2 = assay: Cytotoxicity against human HepG2 cells at 1 to 100 uM after 24 hrs by lactate dehydrogenase assay; type: cell-based; conditions: hepg2, 24 h
# PXR mRNA [1] = assay: Effect on PXR mRNA expression in rat hepatocytes at 3 uM by RT-PCR analysis relative to control; type: ADME, cell-based, Hepatocyte; conditions: read-out: FC
# [2] = target: T1, Nuclear receptor subfamily 1 group I member 2 (Homo sapiens, UniProt O75469); assay: Activation of PXR in human Hu1108 hepatocytes assessed as effect on CYP3A-mediated testosterone 6beta-hydroxylation at 10 to 50 uM after 24 hrs by HPLC analysis; type: ADME, cell-based, Hepatocyte
# T1 sequence (O75469 whole entry): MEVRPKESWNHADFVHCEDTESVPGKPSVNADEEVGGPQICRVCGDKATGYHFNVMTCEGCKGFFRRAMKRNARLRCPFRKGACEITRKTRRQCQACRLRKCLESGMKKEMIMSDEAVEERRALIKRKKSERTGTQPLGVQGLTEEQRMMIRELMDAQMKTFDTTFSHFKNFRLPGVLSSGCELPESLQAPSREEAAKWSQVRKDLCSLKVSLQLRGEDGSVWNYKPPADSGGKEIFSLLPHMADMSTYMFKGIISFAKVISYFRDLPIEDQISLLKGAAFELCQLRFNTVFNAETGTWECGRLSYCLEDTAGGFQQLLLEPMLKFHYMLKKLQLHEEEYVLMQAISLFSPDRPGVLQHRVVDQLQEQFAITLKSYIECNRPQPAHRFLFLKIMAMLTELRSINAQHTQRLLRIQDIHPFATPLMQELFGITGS
# CAR mRNA [3] = assay: Effect on CAR mRNA expression in rat hepatocytes at 30 uM by RT-PCR analysis relative to control; type: ADME, cell-based, Hepatocyte; conditions: read-out: FC
# [4] = target: T2, Nuclear receptor subfamily 1 group I member 3 (Rattus norvegicus, UniProt Q9QUS1); assay: Activation of CAR in rat hepatocytes assessed as upregulation of CYP2B1 mRNA expression at 30 uM after 24 hrs by RT-PCR analysis relative to phenobarbital; type: ADME, cell-based, Hepatocyte
# T2 sequence (Q9QUS1 whole entry): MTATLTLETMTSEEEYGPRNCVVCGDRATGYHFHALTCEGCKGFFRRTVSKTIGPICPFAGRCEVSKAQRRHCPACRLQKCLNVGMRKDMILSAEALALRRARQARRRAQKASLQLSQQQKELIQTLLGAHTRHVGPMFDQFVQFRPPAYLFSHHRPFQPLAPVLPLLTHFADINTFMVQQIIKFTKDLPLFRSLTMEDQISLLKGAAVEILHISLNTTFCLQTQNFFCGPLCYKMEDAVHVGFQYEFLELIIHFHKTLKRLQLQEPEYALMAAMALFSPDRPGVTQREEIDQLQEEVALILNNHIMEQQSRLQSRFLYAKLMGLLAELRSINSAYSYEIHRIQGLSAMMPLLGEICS
# [5] = target: T3, Nuclear receptor subfamily 1 group I member 2 (Rattus norvegicus, UniProt Q9R1A7); assay: Antagonist activity at rat PXR expressed in human HepG2 cells coexpressing CYP3A4 assessed as inhibition of PCN-induced receptor activation up to 100 uM after 24 hrs by dual luciferase reporter gene assay; type: ADME, cell-based; conditions: hepg2, 24 h
# T3 sequence (Q9R1A7 whole entry): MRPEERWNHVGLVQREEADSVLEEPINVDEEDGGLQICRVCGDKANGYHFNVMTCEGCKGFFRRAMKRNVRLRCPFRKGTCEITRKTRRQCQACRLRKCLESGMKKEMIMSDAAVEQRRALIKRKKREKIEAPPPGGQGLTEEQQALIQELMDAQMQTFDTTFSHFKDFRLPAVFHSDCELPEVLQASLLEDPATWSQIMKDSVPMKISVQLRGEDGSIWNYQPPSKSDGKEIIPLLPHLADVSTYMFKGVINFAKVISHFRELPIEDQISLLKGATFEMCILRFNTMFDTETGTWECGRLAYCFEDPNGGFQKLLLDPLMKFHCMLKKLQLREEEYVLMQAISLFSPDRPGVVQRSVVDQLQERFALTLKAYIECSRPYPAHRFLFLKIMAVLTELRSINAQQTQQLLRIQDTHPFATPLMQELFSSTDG
# Hepatocyte = assay: Cytotoxicity against rat hepatocytes at 1 to 100 uM after 24 hrs by lactate dehydrogenase assay; type: cell-based
# [6] = target: T1, Nuclear receptor subfamily 1 group I member 2; assay: Antagonist activity at human PXR expressed in human HepG2 cells coexpressing CYP3A4 assessed as inhibition of rifampicin-induced receptor activation up to 100 uM after 24 hrs by dual luciferase reporter gene assay; type: ADME, cell-based; conditions: hepg2, 24 h
# [7] = target: T4, Nuclear receptor subfamily 1 group I member 3 (Homo sapiens, UniProt Q14994); assay: Activation of human CAR expressed in human HepG2 cells coexpressing CYP2B6 at 0.1 to 100 uM after 24 hrs by dual luciferase reporter gene assay; type: ADME, cell-based; conditions: hepg2, 24 h
# T4 sequence (Q14994 whole entry): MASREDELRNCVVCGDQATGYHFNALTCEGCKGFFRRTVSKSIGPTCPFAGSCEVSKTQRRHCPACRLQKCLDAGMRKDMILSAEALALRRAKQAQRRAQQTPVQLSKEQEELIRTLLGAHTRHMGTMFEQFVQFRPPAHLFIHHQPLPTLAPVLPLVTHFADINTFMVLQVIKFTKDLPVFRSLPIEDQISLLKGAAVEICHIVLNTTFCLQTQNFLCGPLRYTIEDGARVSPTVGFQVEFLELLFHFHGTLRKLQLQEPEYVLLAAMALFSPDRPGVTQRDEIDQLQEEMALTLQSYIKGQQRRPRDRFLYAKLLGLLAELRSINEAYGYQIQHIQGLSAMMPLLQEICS
# CAR mRNA [8] = assay: Effect on CAR mRNA expression in human hepatocytes at 25 uM by RT-PCR analysis relative to control; type: ADME, cell-based, Hepatocyte; conditions: read-out: FC
# [9] = target: T1, Nuclear receptor subfamily 1 group I member 2; assay: Activation of human PXR expressed in rat hepatocytes coexpressing CYP3A4 at 100 uM after 24 hrs by dual luciferase reporter gene assay; type: ADME, cell-based, Hepatocyte
# PXR mRNA [10] = assay: Effect on PXR mRNA expression in human hepatocytes at 50 uM by RT-PCR analysis relative to control; type: ADME, cell-based, Hepatocyte; conditions: read-out: FC
# CAR mRNA [11] = assay: Effect on CAR mRNA expression in rat hepatocytes at 1 uM by RT-PCR analysis relative to control; type: ADME, cell-based, Hepatocyte; conditions: read-out: FC
# [12] = target: T3, Nuclear receptor subfamily 1 group I member 2; assay: Activation of rat PXR expressed in human HepG2 cells coexpressing CYP3A4 at 0.1 to 100 uM after 24 hrs by dual luciferase reporter gene assay; type: ADME, cell-based; conditions: hepg2, 24 h
# [13] = target: T2, Nuclear receptor subfamily 1 group I member 3; assay: Activation of CAR in rat hepatocytes assessed as effect on CYP2B1 mRNA expression at 1 uM after 24 hrs by RT-PCR analysis; type: ADME, cell-based, Hepatocyte
# [14] = target: T4, Nuclear receptor subfamily 1 group I member 3; assay: Activation of human CAR expressed in rat hepatocytes coexpressing CYP2B1 at 100 uM after 24 hrs by dual luciferase reporter gene assay; type: ADME, cell-based, Hepatocyte
# [15] = target: T2, Nuclear receptor subfamily 1 group I member 3; assay: Activation of CAR in rat hepatocytes assessed as increase in CYP2B-mediated benzyloxyresorufin O-dealkylation at 10 uM after 24 hrs by spectrofluorometric analysis relative to phenobarbital; type: ADME, cell-based, Hepatocyte
# [16] = target: T2, Nuclear receptor subfamily 1 group I member 3; assay: Activation of CAR in rat hepatocytes assessed as increase in CYP2B-mediated benzyloxyresorufin O-dealkylation at 30 uM after 24 hrs by spectrofluorometric analysis relative to phenobarbital; type: ADME, cell-based, Hepatocyte
# [17] = target: T4, Nuclear receptor subfamily 1 group I member 3; assay: Activation of CAR in human Hu1108 hepatocytes assessed as increase in CYP2B6-mediated bupropion hydroxylation at 10 to 50 uM after 24 hrs by LC-MS analysis; type: ADME, cell-based, Hepatocyte
smiles,measurement,setting,value
CC(C)(C)[C@]1(O)C[C@@H]2OC(=O)C[C@@]23C(=O)O[C@@H]2OC(=O)[C@H](O)[C@]213,Activity,HepG2,Non-toxic
same,fold induction at 3 µM,PXR mRNA [1],1
same,Activity,[2],Not Active
same,fold induction at 30 µM,CAR mRNA [3],1
same,Activity,[4],37%
same,inhibition (INH),[5],Not Active
same,Activity,Hepatocyte,Non-toxic
same,inhibition (INH),[6],Not Active
same,Activity,[7],Not Active
same,fold induction at 25 µM,CAR mRNA [8],1.4
same,Activity,[9],Not Active
same,fold induction at 50 µM,PXR mRNA [10],0.4
same,fold induction at 1 µM,CAR mRNA [11],1.3
same,Activity,[12],Not Active
same,Activity,[13],Not Active
same,Activity,[14],Not Active
same,Activity,[15],64%
same,Activity,[16],83%
same,Activity,[17],Not Active
